Laboratory results taken from US20050267303A1, “Cyclic indole and heteroindole derivatives and methods for making and using as pharmaceuticals” (Zentaris AG, priority 2001, published 2005).

What was measured:
HeLa/KB (CCL17) cells = assay: XTT cytotoxicity (proliferation) test, HeLa/KB; type: cell-based, human; details: for anti-proliferative effect (summary in words of Table 1): 3.16 μg/mL, over cell lines HeLa/KB, SK-OV-3, MCF-7, L1210; for percentage inhibition KB/HeLa: concentration 3.16 μg/mL, 45 h incubation
Text: (§1) The substances D-70260, D-70744, D-80815, D-80816 and D-80819 (Examples C2.3, D4, F2, F3 and F4) were investigated in a proliferation test (Scudiero, et al., Cancer Res., 48: 4827-33, 1987) using established tumor cell lines and their anti-proliferative activity was investigated. The test used determines the mitochondrial dehydrogenase activity and enables the cell vitality and, indirectly, the cell count to be determined. The cell lines used are the human cell lines HeLa/KB (CCL17), SK-OV-3 (HTB77), MCF-7 (HTB22) and the murine leukemia cell line L1210 (CCL219). These are very well characterized and established cell lines, which were obtained from ATCC and cultured.
(§2) XTT Test for Cellular Dehydrogenase Activity
(§3) The adherent, growing, tumor cell lines HeLa/KB, SK-OV-3, MCF-7, L1210 and RKO were cultured under standard conditions in an incubator with gas inlet at 37° C., 5% carbon dioxide and 95% relative humidity. On day 1 of the experiment, the cells were detached with trypsin/EDTA and palletized by centrifuging. Subsequently, the cell pellet is re-suspended in the respective culture medium in the appropriate cell count and transferred into a 96-well microtiter plate. The plates are then cultured overnight in the incubator with gas inlet. The test substances are used as a 10 mM stock solution in DMSO and diluted on the second day of the experiment with culture medium to the appropriate concentrations. The substances in the culture medium are then added to the cells and incubated for 45 hours in the incubator with gas inlet. The cells, which were not treated with test substances, were used as controls. For the XTT-Assay, 1 mg/mL of XTT (sodium 3′-[1-(phenylaminocarbonyl)-3,4-tetrazolium]-bis(4-methoxy-6-nitro) benzenesulfonic acid) in RPMI-1640 medium was dissolved without phenol red. Additionally, a 0.383 mg/mL PMS (N-methyl dibenzopyrazine methyl sulfate) solution in phosphate buffer cell solution (PBS) was prepared. On the fourth day of the experiment, 75 μL/well of XTT-PMS mixture was pipetted onto the cell plates, which had meanwhile been incubated for 45 hours with the test substances. For this purposes, the XTT solution is mixed with the PMS solution in a ratio of 50:1 (v: v) shortly before use. Subsequently the cell plates are incubated in the incubator with gas inlet for a further three hours and the optical density (OD490nm) is determined in a photometer.
(§4) The percentage inhibition relative to the control is calculated by means of the OD490nm, which has been determined, and the activity is plotted against the log of a concentration. The IC50 is calculated from the concentration-activity curve by means of a regression analysis using the Graphpad program.

SK-OV-3 (HTB77) cells = assay: XTT cytotoxicity (proliferation) test, SK-OV-3; type: cell-based; details: Homo sapiens, concentration 3.16 μg/mL, 45 h incubation, read-out: percentage inhibition SK-OV-3
Text: as §1, §2, §3, §4

[1] = test system: murine leukemia cell line L1210 (CCL219); assay: XTT cytotoxicity (proliferation) test, L1210; type: cell-based; details: Mus musculus, concentration 3.16 μg/mL, 45 h incubation, read-out: percentage inhibition L1210
Text: as §1, §2, §3, §4

MCF-7 (HTB22) cells = assay: XTT cytotoxicity (proliferation) test, MCF-7; type: cell-based; details: Homo sapiens, MCF7, concentration 3.16 μg/mL, 45 h incubation, read-out: percentage inhibition MCF-7
Text: as §1, §2, §3, §4

[2] = test system: HeLa/KB cells in hollow fibers; assay: Hollow fiber model in vivo (nude mouse), HeLa/KB; design: species or system human
Protocol: (§5) In order to determine the availability and effectiveness in the animal model (nude mouse), the cell lines HeLa/KB, MCF-7 and L1210 were cultured in hollow fibers, which are implanted i.p. or s.c. (Hollingshead et al., Life Sciences 57, 131-41, 1995). The test substance D-80816 is administered four times […]. in a dose of 100 mg/kg. At the end of the therapy on day 5, the fibers are explanted and the cell vitality of the tumor cells obtained is determined by means of the XTT assay. For D-80816, there is a maximum inhibition of 100% for all the cell lines and implantation cites and a general toxicity of LD50>1000 mg/kg (i.p.).
(§6) Determination of the Anti-Proliferative Activity in the Hollow Fiber Model in vivo
(§7) The tumor cells lines HeLa/KB, MCF-7 and L1210 are added to polyvinylidene fluoride hollow fibers (5×10^6 cells/mL) and transplanted into the physiological compartments of the nude mouse (intraperitoneally, i.p., or subcutaneously, s.c.). A total of six hollow fibers (3 i.p. and 3 s.c.) with the respective tumor cell lines is transplanted into each experimental animal. One group of six animals is treated with the test substance (i.p. once daily for a total of 4 days) (ok?). The animals, which have been treated only with the solvent tylose, acted as control. The hollow fibers are explanted one day after the last application of substance. The proportion of metabolism-active, vital cells is determined for each hollow fiber by means of the XTT assay (see above). From this, the anti-tumor activity of the test substance is determined as the percent inhibition relative to the control.

[3] = test system: L1210 cells in hollow fibers; assay: Hollow fiber model in vivo (nude mouse), L1210; design: species or system murine; details: dose 4 × 100 mg/kg i.p., explanted day 5
Protocol: as §5, §6
as §7, with “One group of six animals is treated with the test substance (i.p. once daily for a total of 4 days) (ok?). The animals, which have been treated only with the solvent tylose, acted as control. The hollow fibers are explanted one day after the last application of substance.” left out

[4] = test system: MCF-7 cells in hollow fibers; assay: Hollow fiber model in vivo (nude mouse), MCF-7; design: species or system human; details: dose 4 × 100 mg/kg i.p., explanted day 5
Protocol: as §5, §6
as §7, with “One group of six animals is treated with the test substance (i.p. once daily for a total of 4 days) (ok?). The animals, which have been treated only with the solvent tylose, acted as control. The hollow fibers are explanted one day after the last application of substance.” left out

[5] = test system: RKOp27 cells (RKO colon carcinoma line with inducible p27Kip1); assay: Cell cycle analysis in the RKOp27 model (XTT readout); type: cell-based, human
Text: The RKO is a human, colon carcinoma line, in which the cell cycle inhibitor p27^KiPI is induced to express by means of the Ecdyson expression system and leads to a cell cycle arrest specifically in GI (FIG. 2). A substance with non-specific activity inhibits the proliferation independently of whether the RKO cell in GI is arrested or not. On the other hand, cell cycle-specific substances, such as tubulin inhibitors, are cytotoxic only when the cells are not arrested and the cells pass through the cycle. […] Therefore, a defined, molecular, activity mechanism of D-80816 and its derivatives must be assumed. [drawing] [drawing]
Cell Cycle Analysis by Means of the RKOp27 Model
The assay is carried out in 96-well plates. The growth of the cells is arrested completely by the expression of p27^kiP1, which can be induced. […] By comparing the effectiveness of induced and not-induced cells, conclusions can be drawn concerning the mechanism of action (cell cycle specificity) of the therapeutic agents. Cells, which have […], were disseminated in an approximately 4 times higher cell count than uninduced cells, since there no longer is a division during the assay (2×10^4 cells/well induced, about 0.6×10^4 cells/well not induced). The controls are untreated cells (+/−induction). The induction is carried out with 3 μM of muristerone A. The cells are exposed on the first day (+/−muristerone A) and incubated for 24 hours at 37° C. The test substance is added on the second day (control DMSO) and the incubation is continued for a further 48 hours at 37° C., before the standard XTT assay is carried out (see above).

[6] = General toxicity LD50 (i.p.); details: nude, mouse, in vivo, ip, read-out: LD 50 (general toxicity)
Protocol: as §5

SMILES | melting point | anti-proliferative effect (summary in words of Table 1) (HeLa/KB (CCL17) cells) | percentage inhibition KB/HeLa (HeLa/KB (CCL17) cells) | inhibition at 3.16 µg/mL (SK-OV-3 (HTB77) cells) | inhibition at 3.16 µg/mL [1] | inhibition at 3.16 µg/mL (MCF-7 (HTB22) cells) | also measured
COc1ccc2c(c1)cc1c(C)noc(=O)n12 [Example C2.1, 3-methyl-1,2,5-oxadiazino[4,5-α](5-methoxyindole)-6-one] | 217 to 220 °C |  |  |  |  |  | 
CCc1noc(=O)n2c1cc1cc(OC)ccc12 [Example C2.2, 3-ethyl-1,2,5-oxadiazino[4,5-α](5-methoxyindole)-6-one] | 208 to 212 °C |  |  |  |  |  | 
COc1ccccc1-c1noc(=O)n2c1cc1ccccc12 [Example D1, 3-(2-methoxyphenyl)-1,2,5-oxadiazino[4,5α]indole-6-one] | 160 to 162 °C |  |  |  |  |  | 
COc1cccc(-c2noc(=O)n3c2cc2ccccc23)c1 [Example D2, 3-(3-methoxyphenyl)-1,2,5-oxadiazino[4,5α]indole-6-one] | 129 to 130 °C |  |  |  |  |  | 
COc1cccc(-c2noc(=O)n3c2cc2cc(OC)ccc23)c1 [Example D3, 3-(3-methoxyphenyl)-1,2,5-oxadiazino[4,5α](5-methoxyindole)-6-one] | 171 to 173 °C |  |  |  |  |  | 
COc1cccc(C2=C(c3ccccc3)C(=O)n3c2cc2cc(OC)ccc23)c1 [Example F2, 6-methoxy-1-(3-methoxyphenyl)-2-phenyl-3a-aza-cyclopenta[a]indene-3-one] | 111 to 113 °C | do not show a significant effect | 1.7% | 0% | 0% | 8.1% | 
COc1cccc(C2=C(c3cccc(OC)c3)c3cc4cc(OC)ccc4n3C2=O)c1 [Example F3, 6-methoxy-1,2-bis-(3-methoxyphenyl)-3a-aza-cyclopenta[a]indene-3-one] |  | very potent anti-proliferative effect | 91.7% | 66.1% | 94.7% | 18.2% | maximum inhibition in hollow fiber model ([2]; all the cell lines (HeLa/KB, MCF-7, L1210) and implantation sites (i.p., s.c.), 4 × 100 mg/kg): 100%; Proliferation Inhibition in hollow Fibers, KB (i.p.) ([2]; fibers implanted i.p., dose 4 × 100 mg/kg i.p., explanted day 5): 100%; Proliferation Inhibition in hollow Fibers, KB (s.c.) ([2]; fibers implanted s.c., dose 4 × 100 mg/kg i.p., explanted day 5): 100%; Proliferation Inhibition in hollow Fibers, L1210 (i.p.) ([3]; fibers implanted i.p.): 100%; Proliferation Inhibition in hollow Fibers, L1210 (s.c.) ([3]; fibers implanted s.c.): 100%; Proliferation Inhibition in hollow Fibers, MCF7 (i.p.) ([4]; fibers implanted i.p.): 100%; Proliferation Inhibition in hollow Fibers, MCF7 (s.c.) ([4]; fibers implanted s.c.): 100%; anti-proliferative effect in cells arrested in G1 ([5]; RKOp27 cells induced with 3 μM muristerone A (p27 expression, G1 arrest), 48 h, XTT): cannot be measured; anti-proliferative effect in cells not induced ([5]; RKOp27 cells not induced, 48 h, XTT): concentration-dependent anti-proliferative effect; cell cycle-specific activity ([5]; comparison of induced (G1-arrested) and not induced RKOp27 cells): cell cycle-specific activity; LD50 [6]: > 1000 mg/kg; LD50 at 5 days [6]: > 100 mg/kg
COc1ccc(C2=C(c3ccc(F)cc3)C(=O)n3c2cc2cc(OC)ccc23)cc1 [Example F4, 2-(4-florophenyl)-6-methoxy-1-(4-methoxyphenyl)-3a-aza-cyclopenta[a]indene-3-one] | 157 to 160 °C | do not show a significant effect | 0% | 6.6% | 21.8% | 0% | 

Further lines, with some results ahead:

melting point | SMILES | anti-proliferative effect (summary in words of Table 1) (HeLa/KB (CCL17) cells) | percentage inhibition KB/HeLa (HeLa/KB (CCL17) cells) | inhibition at 3.16 µg/mL (SK-OV-3 (HTB77) cells) | inhibition at 3.16 µg/mL [1] | inhibition at 3.16 µg/mL (MCF-7 (HTB22) cells) | also measured
155 to 158 °C | COc1ccc2c(c1)cc1c(-c3ccc(Cl)cc3)nn(-c3ccccc3)c(=O)n12 |  |  |  |  |  | 
198 to 200 °C | COc1ccc2c(c1)cc1c(-c3ccccc3)noc(=O)n12 [Example C2.3, 3-phenyl-1,2,5-oxadiazino[4,5α](5-methoxyindole)-6-one] | very potent anti-proliferative effect | 90.7% | 68.9% | 91.3% | 4.1% | 
227 to 230 °C | COc1ccc2c(c1)cc1c(-c3ccc(Cl)cc3)noc(=O)n12 [Example D4, 3-(4-chlorophenyl)-1,2,5-oxadiazino[4,5α](5-methoxyindole)-6-one] | very potent anti-proliferative effect | 74.6% | 55.2% | 77.1% | 1.9% | 
152 to 155 °C | COc1ccc2c(c1)cc1n2C(=O)C(c2ccccc2)=C1c1ccc(Cl)cc1 [Example F1, 1-(4-chlorophenyl)-6-methoxy-2-phenyl-3a-aza-cyclopenta[a]indene-3-one] |  |  |  |  |  | 
